Molecules are shown by their SMILES. Where “and” joins values, the source holds several entries; their conditions need not be identical. Equal values may be shown once.

Here are results for 2 compounds from article PMC12326981, “Novel C5α-substituted carbapenems enhance Mycobacterium abscessus killing via selective target binding and reduced hydrolysis by BlaMab” (Antimicrobial Agents and Chemotherapy, 2025).

The test system of experiment [1] is 18 clinical isolates. The experiment is described as follows: MIC distribution against 18 clinical isolates (and Mab ATCC 19977). The format is cell-based, Mycobacterium abscessus. The note with it: single agent, 18 clinical isolates (Fig. 3 also Mab ATCC 19977). From the text: We investigated the effect of C5α-substituted carbapenems (C5α-methyl, JDB/NA-1-157 or 10a and C5α-ethyl, JDB/NA-1-208, or 10b) against Mab strain ATCC 19977, which produces BlaMab, alongside 18 clinical isolates obtained from de-identified patients. These clinical isolates were sourced from National Jewish Health, University Hospitals Cleveland Medical Center, and Cleveland MetroHealth. The strains were utilized for MIC assays and static drug concentration time-kill (SCTK) experiments. Two C5α-substituted carbapenems were designed and synthesized in the Buynak lab at SMU ([31]). The active forms of cefuroxime salts, imipenem, amoxicillin, sulbactam, and avibactam were purchased from AchemBlock, while durlobactam was provided by Innoviva Specialty Therapeutics. All β-lactams and BLIs were prepared in sterile distilled water and subsequently filter-sterilized using a 0.22 µm polyethersulfone syringe filter.
MICs were determined in duplicate following Clinical Laboratory Standards Institute ([52]) guidelines using Middlebrook 7H9 broth supplemented with 10% (vol/vol) oleic acid-albumin-dextrose-catalase (OADC) and 0.05% (vol/vol) Tween 80, with an inoculum of 5 × 10⁵ CFU/mL. […]

Experiment [2] deals with BlaMab (Mycobacteroides abscessus, UniProt B1MCI3). As to the kind of experiment: Steady-state kinetics of hydrolysis by BlaMab. The format is biochemical, Mycobacterium abscessus. The note with it: best-fit value (95% confidence interval); MES buffer pH 6.4, room temperature.
Sequence of BlaMab (B1MCI3 entry or part of it): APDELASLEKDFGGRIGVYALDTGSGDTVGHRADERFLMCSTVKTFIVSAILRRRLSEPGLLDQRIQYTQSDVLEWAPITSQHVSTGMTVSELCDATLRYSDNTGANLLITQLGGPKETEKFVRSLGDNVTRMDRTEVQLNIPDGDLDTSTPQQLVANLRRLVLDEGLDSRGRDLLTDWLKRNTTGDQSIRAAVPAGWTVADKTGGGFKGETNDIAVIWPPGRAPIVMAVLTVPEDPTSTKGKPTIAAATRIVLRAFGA
Experiment [3] has as its target T1, PBP-lipo (Mycobacteroides abscessus, UniProt B1MDC3).
T1 construct: made in house; host or cells: Escherichia coli BL21 (DE3)
As to the kind of experiment: Apparent inhibition constant (nitrocefin, Dixon plot). As to conditions: Ki,app. The format is biochemical. On the procedure: (§1) Steady-state kinetic studies with JDB/NA-1-157 and JDB/NA-1-208 were performed using purified LDTs and PBPs, including LDT1–5, PBP-B, PBP-lipo, and D,D-carboxypeptidase. The assays were conducted on a BioTek Synergy2 multimode reader equipped with Gen5 software. To determine the Michaelis constant (Km^NCF) for each LDT and PBP, a wide range of NCF concentrations was tested, while the enzyme concentrations were fixed. Absorbance changes at 482 nm were monitored over 10 min. Steady-state kinetic parameters (Vmax and Km) were derived by fitting the experimental data to the Henri–Michaelis–Menten equation using nonlinear least-squares regression in GraphPad Prism version 9. The reaction velocity (v) at a given substrate concentration ([S]) was calculated using equation 2: […]
(§2) The apparent inhibition constants (Ki,app) for JDB/NA-1-157 and JDB/NA-1-208 were determined under the following conditions: an NCF concentration of 5 × Km, fixed concentrations of LDT or PBP enzymes, and varying concentrations of JDB/NA-1-157 and JDB/NA-1-208. Absorbance changes at 482 nm were monitored over a 30 min period for each inhibitor concentration. The data were linearized using a Dixon plot, which involves plotting the reciprocal of the absorbance change (1/ΔA) against the concentrations of JDB/NA-1-157 or JDB/NA-1-208. Apparent Ki,app values were derived from the intersection points on the Dixon plot and were subsequently corrected for substrate concentration and enzyme affinity using equation 3:
(§3) (3) Ki,app=observed Ki,app/1+[NCF]/Km NCF.

Experiment [4] deals with PBP B (Mycobacteroides abscessus, UniProt B1MP31). As to the kind of experiment: Mass spectrometric analysis of acyl-enzyme adducts. The format is binding. As to conditions: PBP B (65,863); 1:10 molar ratio, 2 h; accuracy ±5 Da. The protocol: Truncated sequences of BlaMab (Δ1–30 blaMab), LDT1–5, DDC, PBP B, PonA2, and PBP-lipo (Δ1–41) were synthesized by Celtek Biosciences (Franklin, TN) and cloned into the pET28(a)+ vector. Purification of LDTs and PBPs was carried out as previously described ([15], [16], [20]). Briefly, clones were transformed into Escherichia coli BL21 (DE3), and protein expression was induced with 0.25 mM isopropyl β-d-1-thiogalactopyranoside. Cell pellets were resuspended in buffer containing 50 mM Tris (pH 8.0), 400 mM sodium chloride, and 1 mM Tris(2-carboxyethyl)phosphine hydrochloride and lysed by sonication. After centrifugation, the supernatant was purified using a His Prep FF column and eluted with 500 mM imidazole.
Sequence of PBP B (B1MP31 entry or part of it): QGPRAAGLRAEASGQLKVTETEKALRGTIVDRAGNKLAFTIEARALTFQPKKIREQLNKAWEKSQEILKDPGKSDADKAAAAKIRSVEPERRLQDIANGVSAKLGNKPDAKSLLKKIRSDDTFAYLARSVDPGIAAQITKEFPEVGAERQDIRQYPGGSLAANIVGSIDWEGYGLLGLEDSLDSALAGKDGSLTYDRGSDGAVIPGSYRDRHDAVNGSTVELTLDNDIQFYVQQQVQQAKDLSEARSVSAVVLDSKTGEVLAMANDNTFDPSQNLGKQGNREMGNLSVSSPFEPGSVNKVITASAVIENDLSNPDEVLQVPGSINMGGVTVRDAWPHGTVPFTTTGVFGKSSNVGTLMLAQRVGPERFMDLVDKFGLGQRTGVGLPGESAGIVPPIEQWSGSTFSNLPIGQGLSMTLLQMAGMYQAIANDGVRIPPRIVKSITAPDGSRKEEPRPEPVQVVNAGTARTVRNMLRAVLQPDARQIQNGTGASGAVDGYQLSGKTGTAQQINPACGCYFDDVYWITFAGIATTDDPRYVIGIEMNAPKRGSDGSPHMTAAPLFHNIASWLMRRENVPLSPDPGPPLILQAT
The purified proteins were incubated at room temperature with JDB/NA-1-157 and JDB/NA-1-208 at a molar ratio of 1:10 for 2 h. A quadrupole time-of-flight mass spectrometer (Waters Synapt-G2-Si) with electrospray ionization and a Waters Acquity H-Class UPLC system were used to analyze the samples. The liquid chromatography conditions were as follows: a BEH C18 column (1.7 µm, 2.1 × 50 mm) and a mobile phase consisting of 0.1% formic acid in water and 0.1% formic acid in acetonitrile, with a gradient elution from 10% to 90% acetonitrile over 11 min at a flow rate of 0.5 mL/min. […]

The target in experiment [5] is LDT5 (Mycobacteroides abscessus, UniProt B1MHQ4). The experiment is described as follows: Apparent inhibition constant (nitrocefin, Dixon plot). The note with it: read-out: Ki,app. The format is biochemical, Mycobacterium abscessus. On the procedure: as §1, §2, §3
Sequence of LDT5 (B1MHQ4 entry or part of it): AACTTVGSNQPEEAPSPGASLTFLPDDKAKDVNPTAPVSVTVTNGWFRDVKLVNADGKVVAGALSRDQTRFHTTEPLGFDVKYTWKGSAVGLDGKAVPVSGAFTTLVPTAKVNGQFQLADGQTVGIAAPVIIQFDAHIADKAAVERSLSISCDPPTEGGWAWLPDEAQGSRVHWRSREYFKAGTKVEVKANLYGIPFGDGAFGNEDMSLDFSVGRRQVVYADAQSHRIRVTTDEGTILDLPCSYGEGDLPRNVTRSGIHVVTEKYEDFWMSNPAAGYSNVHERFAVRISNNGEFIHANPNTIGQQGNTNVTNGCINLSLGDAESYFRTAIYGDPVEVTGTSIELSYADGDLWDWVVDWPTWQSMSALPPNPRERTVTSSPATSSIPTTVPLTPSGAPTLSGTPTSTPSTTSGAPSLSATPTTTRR

T1 sequence (B1MDC3 entry or part of it): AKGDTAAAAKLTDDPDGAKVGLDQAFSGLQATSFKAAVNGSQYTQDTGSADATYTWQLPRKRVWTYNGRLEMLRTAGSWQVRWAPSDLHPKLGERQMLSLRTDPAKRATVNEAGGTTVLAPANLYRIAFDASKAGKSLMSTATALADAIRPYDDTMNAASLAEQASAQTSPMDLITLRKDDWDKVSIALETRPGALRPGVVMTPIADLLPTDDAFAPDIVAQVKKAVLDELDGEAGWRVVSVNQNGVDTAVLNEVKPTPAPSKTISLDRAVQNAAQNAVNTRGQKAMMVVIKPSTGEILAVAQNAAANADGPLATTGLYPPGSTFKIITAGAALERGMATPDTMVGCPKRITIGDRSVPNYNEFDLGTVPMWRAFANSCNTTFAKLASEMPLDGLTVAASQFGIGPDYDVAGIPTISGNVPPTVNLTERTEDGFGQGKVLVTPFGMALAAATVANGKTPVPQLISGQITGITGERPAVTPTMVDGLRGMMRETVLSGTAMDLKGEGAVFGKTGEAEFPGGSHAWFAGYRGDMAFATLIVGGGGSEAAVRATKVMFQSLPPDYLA

A word on the kcat: it is the number of substrate molecules converted per active site and unit of time at saturation. In the case of `C[C@@H](O)[C@H]1C(=O)N2C(C(=O)O)=C(S[C@@H]3CN[C@H](C(=O)N(C)C)C3)C[C@]12C` [JDB/NA-1-157], the MIC range in experiment [1] is 0.125 to 8.0 mg/L and 0.125 to 8 mg/L. Besides, the catalytic constant (kcat) in experiment [2] was 0.03 s⁻¹. Moreover, the Ki in experiment [3] is 258 nM.

In the case of `CC[C@]12CC(S[C@@H]3CN[C@H](C(=O)N(C)C)C3)=C(C(=O)O)N1C(=O)[C@@H]2[C@@H](C)O` [JDB/NA-1-208], the “Mass of protein after incubation (mass shift)” value in experiment [4] is 66,262 (+397) Da. In addition, the Ki in experiment [5] was 28.9 µM.
